{"source": "paper PMC5431432", "about": "“Low-basicity 5-HT7 Receptor Agonists Synthesized Using the van Leusen Multicomponent Protocol” (Scientific Reports, 2017)", "key": {"[1]": {"molecular_target": "T1, 5-HT1B (Homo sapiens, UniProt P28222)", "T1 construct": "Eurofins Cerep (contract screen)", "T1 sequence (P28222 whole entry, species assumed)": "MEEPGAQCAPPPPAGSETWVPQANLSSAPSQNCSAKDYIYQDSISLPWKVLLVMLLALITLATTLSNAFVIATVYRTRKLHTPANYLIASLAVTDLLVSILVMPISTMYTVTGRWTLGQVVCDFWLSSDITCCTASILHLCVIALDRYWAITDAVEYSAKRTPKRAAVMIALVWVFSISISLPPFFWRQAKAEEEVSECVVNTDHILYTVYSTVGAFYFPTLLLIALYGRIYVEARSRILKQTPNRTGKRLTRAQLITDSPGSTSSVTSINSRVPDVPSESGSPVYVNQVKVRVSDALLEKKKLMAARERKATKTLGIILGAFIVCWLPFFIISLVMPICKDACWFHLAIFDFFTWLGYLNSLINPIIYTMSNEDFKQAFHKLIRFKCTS", "test": "Eurofins Cerep binding screen 5-HT1B", "conditions": "10^−6 M; read-out: % Inhibition of control binding 5-HT1B"}, "[2]": {"molecular_target": "T2, CYP3A4 (Homo sapiens, UniProt P08684)", "T2 sequence (P08684 whole entry)": "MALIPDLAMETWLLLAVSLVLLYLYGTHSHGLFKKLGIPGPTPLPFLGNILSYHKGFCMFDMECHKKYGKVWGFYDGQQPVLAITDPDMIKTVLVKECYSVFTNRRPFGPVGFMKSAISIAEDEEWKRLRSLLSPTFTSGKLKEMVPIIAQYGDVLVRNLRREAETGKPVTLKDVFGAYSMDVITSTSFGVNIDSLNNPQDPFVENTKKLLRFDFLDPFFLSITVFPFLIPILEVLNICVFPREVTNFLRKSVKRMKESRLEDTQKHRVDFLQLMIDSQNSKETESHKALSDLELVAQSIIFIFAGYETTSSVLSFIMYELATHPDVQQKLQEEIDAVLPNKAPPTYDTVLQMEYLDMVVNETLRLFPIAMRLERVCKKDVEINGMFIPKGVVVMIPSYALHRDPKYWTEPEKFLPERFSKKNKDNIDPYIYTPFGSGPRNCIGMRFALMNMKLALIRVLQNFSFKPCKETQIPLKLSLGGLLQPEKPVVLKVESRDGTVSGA", "test": "biochemical"}, "[3]": {"molecular_target": "T3, 5-HT5A (Homo sapiens, UniProt P47898)", "T3 construct": "Eurofins Cerep (contract screen)", "T3 sequence (P47898 whole entry, species assumed)": "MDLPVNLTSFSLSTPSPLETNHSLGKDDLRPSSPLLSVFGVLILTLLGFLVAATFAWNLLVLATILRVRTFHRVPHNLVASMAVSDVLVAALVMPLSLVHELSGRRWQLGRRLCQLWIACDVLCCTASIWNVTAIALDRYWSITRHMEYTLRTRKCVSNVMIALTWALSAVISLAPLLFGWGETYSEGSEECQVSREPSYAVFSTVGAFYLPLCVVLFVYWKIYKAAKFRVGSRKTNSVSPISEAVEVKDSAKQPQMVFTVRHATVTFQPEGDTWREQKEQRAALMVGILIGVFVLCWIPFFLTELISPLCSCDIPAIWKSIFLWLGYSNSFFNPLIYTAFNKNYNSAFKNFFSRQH", "test": "Eurofins Cerep binding screen 5-HT5A", "conditions": "10^−6 M; read-out: % Inhibition of control binding 5-HT5A"}, "[4]": {"molecular_target": "T4, 5-HT2B (Homo sapiens, UniProt P41595)", "T4 construct": "Eurofins Cerep (contract screen)", "T4 sequence (P41595 whole entry, species assumed)": "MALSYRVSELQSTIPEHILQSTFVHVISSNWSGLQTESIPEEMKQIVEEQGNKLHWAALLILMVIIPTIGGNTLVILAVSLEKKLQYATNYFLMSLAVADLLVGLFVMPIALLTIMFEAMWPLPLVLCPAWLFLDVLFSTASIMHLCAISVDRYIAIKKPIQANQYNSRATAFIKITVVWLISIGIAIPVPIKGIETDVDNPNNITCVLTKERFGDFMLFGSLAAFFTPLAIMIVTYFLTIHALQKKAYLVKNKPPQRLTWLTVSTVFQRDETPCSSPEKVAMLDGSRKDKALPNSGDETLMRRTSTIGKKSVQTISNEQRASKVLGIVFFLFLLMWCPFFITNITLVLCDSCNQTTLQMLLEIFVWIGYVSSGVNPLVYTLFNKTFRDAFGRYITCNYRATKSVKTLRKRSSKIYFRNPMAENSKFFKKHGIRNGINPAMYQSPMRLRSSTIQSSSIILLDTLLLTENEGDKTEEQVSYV", "test": "Eurofins Cerep binding screen 5-HT2B", "conditions": "read-out: % Inhibition of control binding 5-HT2B"}, "[5]": {"molecular_target": "T5, D3 (Homo sapiens, UniProt P35462)", "T5 construct": "Eurofins Cerep (contract screen)", "T5 sequence (P35462 whole entry)": "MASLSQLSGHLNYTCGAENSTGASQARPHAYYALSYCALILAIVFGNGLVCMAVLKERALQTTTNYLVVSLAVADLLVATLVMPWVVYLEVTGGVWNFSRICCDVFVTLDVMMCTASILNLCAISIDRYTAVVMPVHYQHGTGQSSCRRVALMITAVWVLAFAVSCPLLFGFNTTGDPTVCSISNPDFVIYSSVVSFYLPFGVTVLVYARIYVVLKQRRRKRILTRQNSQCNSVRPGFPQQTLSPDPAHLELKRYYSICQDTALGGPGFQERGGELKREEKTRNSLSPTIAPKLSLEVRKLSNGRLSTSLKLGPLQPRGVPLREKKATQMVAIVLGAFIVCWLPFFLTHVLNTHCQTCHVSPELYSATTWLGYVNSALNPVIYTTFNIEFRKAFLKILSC", "test": "Eurofins Cerep binding screen D3", "conditions": "10^−6 M; read-out: % Inhibition of control binding D3"}, "[6]": {"test_system": "α1", "test": "Eurofins Cerep binding screen α1", "conditions": "10^−6 M"}, "[7]": {"test": "Metabolic stability in human liver microsomes", "format": "in vitro ADME"}, "[8]": {"molecular_target": "human 5-HT7 receptor (Homo sapiens, UniProt P34969)", "sequence (P34969 1-432 limits assumed)": "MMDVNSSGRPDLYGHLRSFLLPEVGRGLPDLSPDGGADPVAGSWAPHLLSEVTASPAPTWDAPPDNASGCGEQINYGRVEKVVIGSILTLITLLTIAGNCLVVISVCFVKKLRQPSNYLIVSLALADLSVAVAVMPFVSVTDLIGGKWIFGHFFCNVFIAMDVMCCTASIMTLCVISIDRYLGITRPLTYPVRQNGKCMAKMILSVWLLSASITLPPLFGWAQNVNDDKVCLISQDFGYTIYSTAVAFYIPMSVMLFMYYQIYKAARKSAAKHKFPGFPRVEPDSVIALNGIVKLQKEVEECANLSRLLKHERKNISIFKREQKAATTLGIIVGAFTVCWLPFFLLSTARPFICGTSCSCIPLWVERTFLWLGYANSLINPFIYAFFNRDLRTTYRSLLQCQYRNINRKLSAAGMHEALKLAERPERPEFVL", "test": "Functional assay, cAMP production (TR-FRET) in HEK293 cells overexpressing 5-HT7R", "format": "cell-based"}, "[9]": {"test_system": "HepG2 cells", "test": "MTS cytotoxicity assay HepG2", "format": "cell-based", "conditions": "72 h incubation, 0.1–100 μM"}, "[10]": {"molecular_target": "T6, α2C (Homo sapiens, UniProt P18825)", "T6 construct": "Eurofins Cerep (contract screen)", "T6 sequence (P18825 1-462)": "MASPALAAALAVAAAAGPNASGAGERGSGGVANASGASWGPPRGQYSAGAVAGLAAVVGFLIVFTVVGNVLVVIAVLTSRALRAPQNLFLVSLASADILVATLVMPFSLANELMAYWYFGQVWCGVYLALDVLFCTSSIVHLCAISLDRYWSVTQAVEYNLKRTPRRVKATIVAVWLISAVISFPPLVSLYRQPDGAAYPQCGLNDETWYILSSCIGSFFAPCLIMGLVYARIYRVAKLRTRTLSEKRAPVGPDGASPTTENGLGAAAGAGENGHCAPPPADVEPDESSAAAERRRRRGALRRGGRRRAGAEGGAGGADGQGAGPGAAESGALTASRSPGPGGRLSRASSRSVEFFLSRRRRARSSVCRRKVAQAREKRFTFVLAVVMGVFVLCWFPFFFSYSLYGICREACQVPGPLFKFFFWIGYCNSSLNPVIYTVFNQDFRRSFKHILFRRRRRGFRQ", "test": "Eurofins Cerep binding screen α2C", "conditions": "10^−6 M; read-out: % Inhibition of control binding α2C"}, "[11]": {"molecular_target": "T7, CB1 (Homo sapiens, UniProt P21554)", "T7 construct": "Eurofins Cerep (contract screen)", "T7 sequence (P21554 whole entry, species assumed)": "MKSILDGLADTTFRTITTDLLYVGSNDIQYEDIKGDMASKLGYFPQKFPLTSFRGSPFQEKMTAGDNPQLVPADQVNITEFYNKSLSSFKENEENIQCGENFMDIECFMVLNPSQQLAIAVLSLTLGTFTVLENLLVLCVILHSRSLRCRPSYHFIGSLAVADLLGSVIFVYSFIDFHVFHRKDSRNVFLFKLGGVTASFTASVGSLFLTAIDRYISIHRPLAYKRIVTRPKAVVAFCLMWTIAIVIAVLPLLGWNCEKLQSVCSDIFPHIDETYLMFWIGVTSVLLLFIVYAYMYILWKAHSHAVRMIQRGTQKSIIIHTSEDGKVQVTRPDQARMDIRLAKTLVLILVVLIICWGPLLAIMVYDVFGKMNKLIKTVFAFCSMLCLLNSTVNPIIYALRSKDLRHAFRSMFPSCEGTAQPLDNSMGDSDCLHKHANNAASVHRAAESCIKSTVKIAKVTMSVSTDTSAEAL", "test": "Eurofins Cerep binding screen CB1", "conditions": "10^−6 M; read-out: % Inhibition of control binding CB1"}, "[12]": {"molecular_target": "human serotonin 5-HT7bR (Homo sapiens, UniProt P34969)", "sequence (P34969 1-432 limits assumed)": "as the sequence (P34969 1-432 limits assumed) above", "test": "Radioligand binding, [3H]-5-CT displacement", "conditions": "read-out: K i (5-HT7R)"}, "[13]": {"molecular_target": "T8, H1 (Homo sapiens, UniProt P35367)", "T8 construct": "Eurofins Cerep (contract screen)", "T8 sequence (P35367 whole entry)": "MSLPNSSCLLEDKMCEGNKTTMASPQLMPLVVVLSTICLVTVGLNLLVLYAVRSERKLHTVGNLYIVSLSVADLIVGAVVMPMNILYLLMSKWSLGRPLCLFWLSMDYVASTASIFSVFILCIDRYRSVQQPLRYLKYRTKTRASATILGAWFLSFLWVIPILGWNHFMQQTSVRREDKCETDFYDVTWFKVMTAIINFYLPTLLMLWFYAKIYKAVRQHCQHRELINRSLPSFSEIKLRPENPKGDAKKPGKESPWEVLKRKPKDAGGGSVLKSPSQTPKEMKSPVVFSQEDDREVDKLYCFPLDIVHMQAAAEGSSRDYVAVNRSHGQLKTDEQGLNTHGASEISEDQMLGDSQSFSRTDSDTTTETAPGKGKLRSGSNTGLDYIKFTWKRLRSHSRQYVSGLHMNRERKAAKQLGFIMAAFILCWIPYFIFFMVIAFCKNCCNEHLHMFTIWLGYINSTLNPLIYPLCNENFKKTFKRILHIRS", "test": "Eurofins Cerep binding screen H1", "conditions": "10^−6 M; read-out: % Inhibition of control binding H1"}, "[14]": {"test": "Water solubility (statement)", "format": "physicochemical"}, "[15]": {"molecular_target": "T2, CYP3A4", "test": "in vitro", "conditions": "CYP3A4 enzyme (Promega P450-Glo luminescent assay)"}, "[16]": {"test_system": "HEK-293 cells", "test": "MTS cytotoxicity assay HEK-293", "format": "cell-based, human", "conditions": "72 h incubation, 0.1–100 μM"}}}
{"smiles": "CCn1cncc1-c1c[nH]c2ccc(OC)cc12.Cl", "note": "[1e, 3-(1-Ethyl-1H-imidazol-5-yl)-5-methoxy-1H-indole hydrochloride]", "values": [{"measurement": "inhibition at 1 µM", "setting": "[1]", "result": 24, "unit": "%"}, {"measurement": "IC50", "setting": "[2]", "result": 0.27, "unit": "µM"}, {"measurement": "inhibition at 1 µM", "setting": "[3]", "result": 9, "unit": "%"}, {"measurement": "inhibition at 1 µM", "setting": "[4]; 10^−6 M (1 µM)", "result": 93, "unit": "%"}, {"measurement": "inhibition at 0.01 µM", "setting": "[4]; 10^−8 M (10 nM)", "result": 6, "unit": "%"}, {"measurement": "inhibition at 1 µM", "setting": "[5]", "result": 8, "unit": "%"}, {"measurement": "% Inhibition of control binding α1", "setting": "[6]", "result": 5, "unit": "%"}, {"measurement": "main metabolic pathway", "setting": "[7]; MS of metabolite M1", "result": "hydroxylation"}, {"measurement": "CLint scaled at 50 μM", "setting": "[7]; human, read-out: Clint, metabolic clearance", "result": 3.69, "unit": "mL/min/kg"}, {"measurement": "function at the human 5-HT7 receptor", "setting": "[8]", "result": "full agonists"}, {"measurement": "EC50", "setting": "[8]; hydrochloride salts", "result": 0.06, "unit": "µM"}, {"measurement": "cell viability in words, HepG2", "setting": "[9]", "result": "the cells remained viable in all tested concentrations"}, {"measurement": "inhibition at 1 µM", "setting": "[10]", "result": 9, "unit": "%"}, {"measurement": "inhibition at 1 µM", "setting": "[11]", "result": 8, "unit": "%"}, {"measurement": "Ki", "setting": "[12]", "result": 0.03, "unit": "µM"}, {"measurement": "inhibition at 1 µM", "setting": "[13]", "result": 6, "unit": "%"}, {"measurement": "water solubility in words", "setting": "[14]", "result": "water soluble"}, {"measurement": "IC50", "setting": "[15]", "result": 0.24, "unit": "µM"}, {"measurement": "cell viability in words, HEK-293", "setting": "[16]", "result": "the cells remained viable in all tested concentrations"}]}
